The values that follow come from US9469615B2, “Quinoxalines and AZA-quinoxalines as CRTH2 receptor modulators” (Merck Sharp & Dohme Corp., priority 2010, dated 2016).

This assay addresses T1, hCRTH2 (Homo sapiens, UniProt Q9Y5Y4).
T1 construct: expressed in transfected cells; host or cells: HEK (human embryonic kidney) cells expressing hCRTH2; membrane preparation
T1 sequence (Q9Y5Y4 1-395): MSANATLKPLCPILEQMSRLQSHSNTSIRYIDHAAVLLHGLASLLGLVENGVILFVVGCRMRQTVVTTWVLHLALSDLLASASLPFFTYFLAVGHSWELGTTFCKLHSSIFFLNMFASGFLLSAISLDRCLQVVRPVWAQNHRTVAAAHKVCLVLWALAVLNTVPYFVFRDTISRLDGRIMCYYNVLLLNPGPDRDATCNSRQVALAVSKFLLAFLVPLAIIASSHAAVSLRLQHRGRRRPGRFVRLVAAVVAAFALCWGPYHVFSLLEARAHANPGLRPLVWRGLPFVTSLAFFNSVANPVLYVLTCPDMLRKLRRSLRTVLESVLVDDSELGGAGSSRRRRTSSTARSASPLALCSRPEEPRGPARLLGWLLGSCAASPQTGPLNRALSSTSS
The assay is described as follows: Radioligand binding assay ([3H]PGD2 competition, HEK-hCRTH2 membranes). The conditions noted are these: [3H]PGD2 binding, rated A-E (Table A). An outline of the steps:
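Competition against 3.0 nM [3H]PGD2 was run for 60 min at room temperature in pH 7.4 Tris-HCl buffer with EDTA, 2 mM MnCl2 and 1% DMSO, using 8-20 μg HEK-hCRTH2 membrane protein. 10 μM PGD2 set non-specific binding; filter-bound counts were read by scintillation.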

For `O=C(O)CCCCc1nc2cc(C(=O)NC3Cc4ccccc4C3)ccc2nc1-c1ccc(F)cc1` [compound 103, 7-[[(2,3-dihydro-1H-inden-2-yl)amino]carbonyl]-3-(4-fluorophenyl)-2-quinoxalinepentanoic acid], the inhibitory constant (Ki) lay in the range of 0.1 to 2 nM.
In the case of `N#Cc1ccc(CNC(=O)c2ccc3nc(-c4ccc(F)cc4)c(CCCCC(=O)O)nc3c2)cc1` [compound 104, 7-[[[(4-cyanophenyl)methyl]amino]carbonyl]-3-(4-fluorophenyl)-2-quinoxalinepentanoic acid], the Ki fell in the range of 2.1 to 20 nM.
`O=C(O)CCCCc1nc2cc(C(=O)N3CCC(c4ccccc4)CC3)ccc2nc1-c1ccc(F)cc1` [compound 105, 3-(4-fluorophenyl)-7-[(4-phenyl-1-piperidinyl)carbonyl]-2-quinoxalinepentanoic acid] displayed a Ki of 2.1 to 20 nM.
Compound `O=C(O)CCCCc1nc2cc(C(=O)N3CCC(c4ccccc4)C3)ccc2nc1-c1ccc(F)cc1` (centres unmarked) [compound 106, 3-(4-fluorophenyl)-7-[(3-phenyl-1-pyrrolidinyl)carbonyl]-2-quinoxalinepentanoic acid] registered a Ki of 0.1 to 2 nM.
With `O=C(O)CCCCc1nc2cc(C(=O)NCc3ccc(OC(F)(F)F)cc3)ccc2nc1-c1ccc(F)cc1` [compound 107, 3-(4-fluorophenyl)-7-[[[[4-(trifluoromethoxy)phenyl]methyl]amino]carbonyl]-2-quinoxalinepentanoic acid], the Ki fell in the range of 2.1 to 20 nM.
In turn, `O=C(O)CCCCc1nc2cc(C(=O)NCc3cc(Cl)cc(Cl)c3)ccc2nc1-c1ccc(F)cc1` [compound 108, 7-[[[(3,5-dichlorophenyl)methyl]amino]carbonyl]-3-(4-fluorophenyl)-2-quinoxalinepentanoic acid] came in with a Ki of 2.1 to 20 nM.
Then `O=C(O)CCCCc1nc2cc(C(=O)NCc3ccc(F)cc3)ccc2nc1-c1ccc(F)cc1` [compound 109, 3-(4-fluorophenyl)-7-[[[(4-fluorophenyl)methyl]amino]carbonyl]-2-quinoxalinepentanoic acid], with 2.1 to 20 nM; and `C[C@@H](NC(=O)c1ccc2nc(-c3ccc(F)cc3)c(CCCCC(=O)O)nc2c1)c1ccc(F)cc1` [compound 110, 3-(4-fluorophenyl)-7-[[[1(R)-(4-fluorophenyl)ethyl]amino]carbonyl]-2-quinoxalinepentanoic acid], with 2.1 to 20 nM.
`C[C@H](NC(=O)c1ccc2nc(-c3ccc(F)cc3)c(CCCCC(=O)O)nc2c1)c1ccc(F)cc1` [compound 111, 3-(4-fluorophenyl)-7-[[[1(S)-(4-fluorophenyl)ethyl]amino]carbonyl]-2-quinoxalinepentanoic acid] gave an inhibition constant (Ki) of 2.1 to 20 nM.
On to `O=C(O)CCCCc1nc2cc(C(=O)NCc3ccc(C(F)(F)F)cc3)ccc2nc1-c1ccc(F)cc1` [compound 112], for which the Ki was 2.1 to 20 nM.
Regarding `COCCn1c(=O)n(C2CCN(C(=O)c3ccc4nc(-c5ccccc5)c(CCCCC(=O)O)nc4c3)CC2)c2ccccc21` [compound 113, 7-[[4-[2,3-dihydro-3-(2-methoxyethyl)-2-oxo-1H-benzimidazol-1-yl]-1 - piperidinyl]carbonyl]-3-phenyl-2-quinoxalinepentanoic acid], the Ki was 2.1 to 20 nM.
As for `CO/N=C(/c1ccccn1)C1CCN(C(=O)c2ccc3nc(-c4ccccc4)c(CCCCC(=O)O)nc3c2)CC1` [compound 114, 7-[[4-[(E)-(methoxyimino)-2-pyridinylmethyl]-1-piperidinyl]carbonyl]-3-phenyl-2-quinoxalinepentanoic acid], the figure is 2.1 to 20 nM.
`O=C(O)CCCCc1nc2cc(C(=O)N3CC=C(c4ccccc4)CC3)ccc2nc1-c1ccccc1` [compound 116, 7-(4-phenyl-1,2,3,6-tetrahydropyridine-1-carbonyl)-3-phenyl-2-quinoxalinepentanoic acid] had a Ki of 2.1 to 20 nM.
As for `O=C(O)CCCCc1nc2cc(C(=O)N3CCC(n4c(=O)[nH]c5ccccc54)CC3)ccc2nc1-c1ccccc1` [compound 117, 7-[[4-(2,3-dihydro-2-oxo-1H-benzimidazol-1-yl)-1-piperidinyl]carbonyl]-3-phenyl-2-quinoxalinepentanoic acid], the figure is 2.1 to 20 nM; as for `CS(=O)(=O)N1CC2(CCN(C(=O)c3ccc4nc(-c5ccccc5)c(CCCCC(=O)O)nc4c3)CC2)c2ccccc21` [compound 118, 7-[[1,2-dihydro-1-(methylsulfonyl)spiro[3H-indole-3,4′-piperidin]-1′-yl]carbonyl]-3-phenyl-2-quinoxalinepentanoic acid], 2.1 to 20 nM; as for `CN1C(=O)C2(CCN(C(=O)c3ccc4nc(-c5ccccc5)c(CCCCC(=O)O)nc4c3)CC2)c2ccccc21` [compound 119], 2.1 to 20 nM.
Consider `O=C(O)CCCCc1nc2cc(C(=O)N3CCC4(CC3)COc3ccccc34)ccc2nc1-c1ccccc1` [compound 120, 3-phenyl-7-(spiro[benzofuran-3(2H),4′-piperidin]-1′-ylcarbonyl)-2-quinoxalinepentanoic acid], for which the Ki was 2.1 to 20 nM.
With `O=C(O)CCCCc1nc2cc(C(=O)N3CCC4(CCc5ccccc54)CC3)ccc2nc1-c1ccccc1` [compound 121, 7-[(2,3-dihydrospiro [1H-indene-1,4′-piperidin]-1′-yl)carbonyl]-3-phenyl-2-quinoxalinepentanoic acid], the inhibitory constant (Ki) fell in the range of 2.1 to 20 nM.
Turning to `CN1CC2(CCN(C(=O)c3ccc4nc(-c5ccccc5)c(CCCCC(=O)O)nc4c3)CC2)c2ccccc21` [compound 122, 7-[(1,2-dihydro-1-methylspiro[3H-indole-3,4′-piperidin]-1′-yl)carbonyl]-3-phenyl-2-quinoxalinepentanoic acid], the Ki was in the range of 2.1 to 20 nM.
As for `CC(=O)N1CC2(CCN(C(=O)c3ccc4nc(-c5ccccc5)c(CCCCC(=O)O)nc4c3)CC2)c2ccccc21` [compound 123, 7-[(1-acetyl-1,2-dihydrospiro[3H-indole-3,4′-piperidin]-1′-yl)carbonyl]-3-phenyl-2-quinoxalinepentanoic acid], the Ki was 2.1 to 20 nM.
`N#CC1(c2ccccc2)CCN(C(=O)c2ccc3nc(-c4ccccc4)c(CCCCC(=O)O)nc3c2)CC1` [compound 124, 7-[(4-cyano-4-phenyl-1-piperidinyl)carbonyl]-3-phenyl-2-quinolaxinepentanoic acid] registered a Ki of 2.1 to 20 nM.
As for `O=C(O)CCCCc1nc2cc(C(=O)N3CCC4(CC3)C(=O)NCN4c3ccccc3)ccc2nc1-c1ccccc1` [compound 125, 7-[(4-oxo-l-phenyl-1,3,8-triazaspiro[4.5]dec-8-yl)carbonyl]-3-phenyl-2-quinoxalinepentanoic acid], the figure is 2.1 to 20 nM; as for `O=C(O)CCCCc1nc2cc(C(=O)N3CCC4(CC3)C(=O)NCN4c3ccccc3)ccc2nc1-c1ccc(F)cc1` [compound 126, 3-(4-fluorophenyl)-7-[(4-oxo-1-phenyl-1,3,8-triazaspiro[4.5]dec-8-yl)carbonyl]-2-quinoxalinepentanoic acid], 2.1 to 20 nM; as for `O=C(O)CCCCc1nc2cc(C(=O)N3CC=C(c4ccccc4)CC3)ccc2nc1-c1ccc(F)cc1` [compound 127, 5-(3-(4-fluorophenyl)-7-(4-phenyl-1,2,3,6-tetrahydropyridine-1-carbonyl)quinoxalin-2-yl)pentanoic acid], 2.1 to 20 nM.
Turning to `N#CC1(c2ccccc2)CCN(C(=O)c2ccc3nc(-c4ccc(F)cc4)c(CCCCC(=O)O)nc3c2)CC1` [compound 128], the Ki was 2.1 to 20 nM.
As for `O=C(O)CCCCc1nc2cc(C(=O)NCc3ccccc3)ccc2nc1-c1ccc(F)cc1` [compound 129, 3-(4-fluorophenyl)-7-[[(phenylmethyl)amino]carbonyl]-2-quinoxalinepentanoic acid], the figure is 0.1 to 2 nM.
`C[C@@H](NC(=O)c1ccc2nc(-c3ccc(F)cc3)c(CCCCC(=O)O)nc2c1)c1ccc(Cl)cc1` [compound 130, 7-[[[1(R)-(4-chlorophenyl)ethyl]amino]carbonyl]-3-(4-fluorophenyl)-2-quinoxalinepentanoic acid] displayed a Ki of 0.1 to 2 nM.
With `C[C@H](NC(=O)c1ccc2nc(-c3ccc(F)cc3)c(CCCCC(=O)O)nc2c1)c1ccc(Cl)cc1` [compound 131, 7-[[[1(S)-(4-chlorophenyl)ethyl]amino]carbonyl]-3-(4-fluorophenyl)-2-quinoxalinepentanoic acid], the Ki fell in the range of 2.1 to 20 nM.
Turning to `C[C@@H](NC(=O)c1ccc2nc(-c3ccc(F)cc3)c(CCCCC(=O)O)nc2c1)c1ccccc1` [compound 132, 3-(4-fluorophenyl)-7-[[(1(R)-phenylethyl)amino]carbonyl]-2-quinoxalinepentanoic acid], the Ki lay in the range of 2.1 to 20 nM.
Compound `C[C@H](NC(=O)c1ccc2nc(-c3ccc(F)cc3)c(CCCCC(=O)O)nc2c1)c1ccccc1` [compound 133, 3-(4-fluorophenyl)-7-[[(1(S)-phenylethyl)amino]carbonyl]-2-quinoxalinepentanoic acid] had a Ki of 2.1 to 20 nM.
As for `O=C(O)CCCCc1nc2cc(C(=O)N3CCC(O)(c4ccc(Cl)cc4)CC3)ccc2nc1-c1ccc(F)cc1` [compound 134, 7-[[4-(4-chlorophenyl)-4-hydroxy-1-piperidinyl]carbonyl]-3-(4-fluorophenyl)-2-quinoxalinepentanoic acid], the figure is 0.1 to 2 nM; as for `O=C(O)CCCCc1nc2cc(C(=O)N3CCC(c4ccc(Cl)cc4)CC3)ccc2nc1-c1ccc(F)cc1` [compound 135], 2.1 to 20 nM.
